Assay results reported in patent US11613522B2, “Herbicidally active 3-phenylisoxazoline-5-carboxamides of tetrahydro- and dihydrofurancarboxamides” (BAYER AKTIENGESELLSCHAFT, priority 2017, dated 2023).

How the values were obtained:
Type in all cases: in vivo
Stellaria media [1] = experiment: Post-emergence herbicidal activity against STEME; conditions: dosage 320 g/ha, rated visually after about 3 weeks
Outline: (§1)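 Seeds sown in sandy loam, greenhouse-grown; at one-leaf stage (2–3 wk) sprayed with WP/EC in water + 0.5% additive, 600 l/ha. ~3 wk greenhouse hold, then visual % activity vs untreated (100% = plants dead).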

Amaranthus retroflexus [2] = experiment: Pre-emergence herbicidal activity against AMARE; conditions: dosage 80 g/ha, scored visually after about 3 weeks vs untreated controls
Outline: (§2)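 Pre-emergence pot test: seed → soil cover → spray of WP/EC formulation (aq., 0.5% additive, 600 l/ha) on soil surface → greenhouse ~3 wk → visual % activity vs untreated (100% = dead, 0% = as control).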

Setaria viridis [3] = experiment: Pre-emergence herbicidal activity against SETVI; conditions: dosage 80 g/ha, scored visually after about 3 weeks vs untreated controls
Outline: as §2

Hordeum murinum [4] = experiment: Pre-emergence herbicidal activity against HORMU; conditions: dosage 80 g/ha
Outline: as §2

Pharbitis purpurea [5] = experiment: Pre-emergence herbicidal activity against PHBPU; conditions: dosage 80 g/ha, scored visually after about 3 weeks vs untreated controls
Excerpt: (§3) 1. Pre-emergence herbicidal action against harmful plants and crop plant compatibility Seeds of monocotyledonous and dicotyledonous weed plants and crop plants are placed in plastic or wood fiber pots and covered with soil. The compounds of the invention, formulated in the form of wettable powders (WP) or as emulsion concentrates (EC), are then applied onto the surface of the covering soil as aqueous suspension or emulsion with addition of 0.5% additive at a water application rate of 600 l/ha (converted). After the treatment, the pots are placed in a greenhouse and kept under good growth conditions for the trial plants. After about 3 weeks, the effect of the preparations is scored visually in comparison with untreated controls as percentages. For example, 100% activity=the plants have died, 0% activity=like control plants. [table]

Alopecurus myosuroides [6] = experiment: Pre-emergence herbicidal activity against ALOMY; conditions: dosage 80 g/ha, scored visually after about 3 weeks vs untreated controls
Outline: as §2

Veronica persica [7] = experiment: Pre-emergence herbicidal activity against VERPE; conditions: dosage 80 g/ha
Outline: as §2

Stellaria media [8] = experiment: Pre-emergence herbicidal activity against STEME; conditions: dosage 80 g/ha, scored visually after about 3 weeks vs untreated controls
Outline: as §2

Alopecurus myosuroides [9] = experiment: Post-emergence herbicidal activity against ALOMY; conditions: dosage 320 g/ha, rated visually after about 3 weeks
Outline: as §1

Viola tricolor [10] = experiment: Post-emergence herbicidal activity against VIOTR; conditions: dosage 320 g/ha, rated visually after about 3 weeks
Outline: as §1

Avena fatua [11] = experiment: Pre-emergence herbicidal activity against AVEFA; conditions: dosage 80 g/ha, scored visually after about 3 weeks vs untreated controls
Outline: as §2

Amaranthus retroflexus [12] = experiment: Post-emergence herbicidal activity against AMARE; conditions: dosage 320 g/ha, rated visually after about 3 weeks
Outline: as §1

Hordeum murinum [13] = experiment: Post-emergence herbicidal activity against HORMU; conditions: dosage 320 g/ha, rated visually after about 3 weeks
Outline: as §1

Echinochloa crus-galli [14] = experiment: Pre-emergence herbicidal activity against ECHCG; conditions: dosage 80 g/ha, scored visually after about 3 weeks vs untreated controls
Excerpt: as §3

Viola tricolor [15] = experiment: Pre-emergence herbicidal activity against VIOTR; conditions: dosage 80 g/ha, scored visually after about 3 weeks vs untreated controls
Outline: as §2

Lolium rigidum [16] = experiment: Pre-emergence herbicidal activity against LOLRI; conditions: dosage 80 g/ha, scored visually after about 3 weeks vs untreated controls
Outline: as §2

Setaria viridis [17] = experiment: Post-emergence herbicidal activity against SETVI; conditions: dosage 320 g/ha, rated visually after about 3 weeks
Outline: as §1

Veronica persica [18] = experiment: Post-emergence herbicidal activity against VERPE; conditions: dosage 320 g/ha, rated visually after about 3 weeks
Outline: as §1

Polygonum convolvulus [19] = experiment: Pre-emergence herbicidal activity against POLCO; conditions: dosage 80 g/ha, scored visually after about 3 weeks vs untreated controls
Outline: as §2

Polygonum convolvulus [20] = experiment: Post-emergence herbicidal activity against POLCO; conditions: dosage 320 g/ha, rated visually after about 3 weeks
Outline: as §1

Avena fatua [21] = experiment: Post-emergence herbicidal activity against AVEFA; conditions: dosage 320 g/ha, rated visually after about 3 weeks
Outline: as §1

Pharbitis purpurea [22] = experiment: Post-emergence herbicidal activity against PHBPU; conditions: dosage 320 g/ha, rated visually after about 3 weeks
Outline: as §1

Abutilon theophrasti = experiment: Post-emergence herbicidal activity against ABUTH; conditions: dosage 320 g/ha, rated visually after about 3 weeks
Outline: as §1

Lolium rigidum [23] = experiment: Post-emergence herbicidal activity against LOLRI; conditions: dosage 320 g/ha, rated visually after about 3 weeks
Outline: as §1

Echinochloa crus-galli [24] = experiment: Post-emergence herbicidal activity against ECHCG; conditions: dosage 320 g/ha, rated visually after about 3 weeks
Outline: as §1

SMILES	Post-emergence herbicidal activity in % against STEME (Stellaria media [1])	Pre-emergence herbicidal activity in % against AMARE (Amaranthus retroflexus [2])	Pre-emergence herbicidal activity in % against SETVI (Setaria viridis [3])	Pre-emergence herbicidal activity in % against PHBPU (Pharbitis purpurea [5])	Pre-emergence herbicidal activity in % against ALOMY (Alopecurus myosuroides [6])	Pre-emergence herbicidal activity in % against STEME (Stellaria media [8])	Post-emergence herbicidal activity in % against ALOMY (Alopecurus myosuroides [9])	Pre-emergence herbicidal activity in % against AVEVA (AVEFA) (Avena fatua [11])	Post-emergence herbicidal activity in % against AMARE (Amaranthus retroflexus [12])	Post-emergence herbicidal activity in % against HORMU (Hordeum murinum [13])	Pre-emergence herbicidal activity in % against ECHCG (Echinochloa crus-galli [14])	Pre-emergence herbicidal activity in % against VIOTR (Viola tricolor [15])	Pre-emergence herbicidal activity in % against LOLRI (Lolium rigidum [16])	Post-emergence herbicidal activity in % against SETVI (Setaria viridis [17])	Post-emergence herbicidal activity in % against VERPE (Veronica persica [18])	Pre-emergence herbicidal activity in % against POLCO (Polygonum convolvulus [19])	Post-emergence herbicidal activity in % against POLCO (Polygonum convolvulus [20])	Post-emergence herbicidal activity in % against AVEFA (Avena fatua [21])	Post-emergence herbicidal activity in % against PHBPU (Pharbitis purpurea [22])	Post-emergence herbicidal activity in % against ABUTH (Abutilon theophrasti)	further results
C=C[C@]1(C(=O)N[C@@H]2CO[C@H](C(=O)NCC(=O)OC)C2)CC(c2cc(F)cc(F)c2)=NO1 [Example I-21]	90%	100%	100%	90%	100%	90%	90%	100%	90%	100%	100%	100%	100%	90%	80%	100%	90%	100%	90%	90%	Pre-emergence herbicidal activity in % against HORMU (Hordeum murinum [4]): 90%; Pre-emergence herbicidal activity in % against VERPE (Veronica persica [7]): 90%; Post-emergence herbicidal activity in % against VIOTR (Viola tricolor [10]): 90%; Post-emergence herbicidal activity in % against LOLRI (Lolium rigidum [23]): 90%; Post-emergence herbicidal activity in % against ECHCG (Echinochloa crus-galli [24]): 90%
C[C@]1(C(=O)N[C@@H]2CO[C@H](C(=O)NS(C)(=O)=O)C2)CC(c2cc(F)cc(F)c2)=NO1 [Example I-23]	90%	100%	100%	90%	100%	100%	90%	100%	80%	100%	100%	90%	100%	80%	80%	100%	90%	100%	80%	80%	Pre-emergence herbicidal activity in % against HORMU (Hordeum murinum [4]): 90%; Pre-emergence herbicidal activity in % against VERPE (Veronica persica [7]): 90%; Post-emergence herbicidal activity in % against VIOTR (Viola tricolor [10]): 80%; Post-emergence herbicidal activity in % against LOLRI (Lolium rigidum [23]): 100%; Post-emergence herbicidal activity in % against ECHCG (Echinochloa crus-galli [24]): 90%
CN(C)C(=O)[C@@H]1C[C@H](NC(=O)[C@@]2(C)CC(c3cc(F)cc(F)c3)=NO2)CO1 [Example I-25]	90%	100%	100%	90%	100%	100%	100%	90%	80%	90%	80%	100%	100%	80%	80%	100%	80%	90%	90%	80%	Pre-emergence herbicidal activity in % against VERPE (Veronica persica [7]): 90%; Post-emergence herbicidal activity in % against LOLRI (Lolium rigidum [23]): 100%
C=C[C@]1(C(=O)N[C@@H]2CO[C@H](C(=O)NCCC(=O)OC)C2)CC(c2cc(F)cc(F)c2)=NO1 [Example I-20]	80%	100%	100%	80%	100%	100%	100%	100%	90%	100%	100%	100%	100%	90%	80%	100%	80%	100%	90%	80%	Pre-emergence herbicidal activity in % against HORMU (Hordeum murinum [4]): 100%; Post-emergence herbicidal activity in % against VIOTR (Viola tricolor [10]): 80%; Post-emergence herbicidal activity in % against LOLRI (Lolium rigidum [23]): 100%; Post-emergence herbicidal activity in % against ECHCG (Echinochloa crus-galli [24]): 100%
CONC(=O)[C@@H]1C[C@H](NC(=O)[C@@]2(C)CC(c3cc(F)cc(F)c3)=NO2)CO1 [Example I-24]	100%	100%	100%	90%	100%	90%	100%	100%	80%	100%	90%	90%	100%	80%	80%	90%	80%	100%	90%	80%	Pre-emergence herbicidal activity in % against HORMU (Hordeum murinum [4]): 100%; Pre-emergence herbicidal activity in % against VERPE (Veronica persica [7]): 90%; Post-emergence herbicidal activity in % against VIOTR (Viola tricolor [10]): 90%; Post-emergence herbicidal activity in % against LOLRI (Lolium rigidum [23]): 100%; Post-emergence herbicidal activity in % against ECHCG (Echinochloa crus-galli [24]): 100%
